Reference: patent US20130034522A1, “THERAPIES FOR TREATING HEPATITIS C VIRUS INFECTION” (priority 2010, published 2013)
“And” between values parts separate entries of the source, which are not always exact repeats. Equal values may be shown once.

Legend:
[1] = system: genotype 1 chronic hepatitis C infection; assay: Study 101 Part C: pharmacodynamics of VX-222 (HCV plasma RNA); assay type: in vivo, Hepatitis C virus; conditions: 750 mg b.i.d. for 3 consecutive days, treatment-naïve genotype 1 subjects
Method: In Part C of Study 101, VX-222 was administered as multiple doses of 750 mg b.i.d. to treatment-naïve subjects with chronic hepatitis C for 3 days. In addition, in Part A of Study 102, VX-222 was administered as multiple doses ranging from 250 mg to 750 mg BID and 1500 mg once a day to treatment-naïve subjects with chronic hepatitis C for 3 days. A primary objective of Part C of Study 101 was to assess the pharmacodynamics of VX-222 in treatment-naïve subjects with genotype 1 chronic hepatitis C infection. The final pharmacodynamic parameters of VX-222 administered at 750 mg b.i.d. for 3 consecutive days are outlined below: • The mean untransformed baseline (Day 1) HCV plasma RNA level was 4962600 IU/mL (log10=6.4927). • The mean maximum reduction from baseline calculated using the log10 predose HCV plasma RNA on Days 2 to 4 was −3.6784. The correlation between the predose RNA levels and the amplitude of the reduction in log 10 HCV RNA was relatively weak.

Huh-7, ET replicon cells = assay: Drug combination luciferase assay (4-day, MacSynergy); assay type: cell-based, Hepatitis C virus; conditions: combination with VX-950, 4 days
Text: Replicon cell lines Huh-7, ET cells derived from the Huh-7 hepatocarcinoma cell line are obtained from Dr. Ralf Bartenschlager (Bartenschlager, R. Innovation: Hepatitis C virus replicons: potential role for drug development. Nat. Rev. Drug Discov. 2002, 1, 911-916. Krieger, N.; Lohmann, V.; Bartenschlager, R. Enhancement of hepatitis C virus RNA replication by cell culture-adaptive mutations. J. Virol. 2001, 75, 4614-4624. Lohmann, V.; Korner, F.; Koch, J.-O.; Herian, U.; Theilmann, L.; Bartenschlager, R. Replication of subgenomic hepatitis C virus RNAs in a hepatoma cell line. Science. 1999, 285, 110-113.) (Reblikon GmbH, Gau-Odernheim, Germany). […]
Huh-7, ET replicon cells are seeded in white opaque 96-well cell culture microtiter plates at sub-confluent density (3×10^3 cells per well) in a volume of 100 μL media. […] Plates are read for Luciferase counts using a luminometer (Wallac MicroBeta Trilux, Perkin Elmer™, MA, USA). […]

[2] = PK parameters of VX-222 in Study 101 Part C and Study 102 Part A; assay type: in vivo, human
Method: In Part C of Study 101, VX-222 was administered as multiple doses of 750 mg b.i.d. to treatment-naïve subjects with chronic hepatitis C for 3 days. In addition, in Part A of Study 102, VX-222 was administered as multiple doses ranging from 250 mg to 750 mg BID and 1500 mg once a day to treatment-naïve subjects with chronic hepatitis C for 3 days.

[3] = multiple doses, treatment-naïve chronic hepatitis C subjects

## CC1CCC(C(=O)N(c2cc(C#CC(C)(C)C)sc2C(=O)O)C2CCC(O)CC2)CC1 (stereo not drawn) [VX-222, 5-(3,3-Dimethylbut-1-ynyl)-3-[(trans-4-hydroxycyclohexyl)-(4-trans methylcyclohexanecarbonyl)amino]thiophene-2-carboxylic acid]
[1]
  mean maximum reduction from baseline, log10 predose HCV plasma RNA on Days 2 to 4: −3.6784
Huh-7, ET replicon cells
  Results VX-950 (synergy class): Moderated synergy (50 uM^2%-100 uM^2%)
Huh-7, ET replicon cells; listed as 1
  volume of synergy: 90 uM^2% and 86 uM^2%
[2]; 250 to 750 mg b.i.d.
  VX-222 exposures versus dose: increased in an approximately dose proportional manner
[2]; all doses
  mean t1/2 across doses: remained unchanged across all doses
[2]; all subjects
  VX-222 concentrations at the end of the dosing intervals: > 319 ng/mL
[2]; b.i.d. regimens
  accumulation index: around 2 fold
[2]; human, in vivo
  half-life: ~5 h
[2]; human, in vivo, read-out: median tmax at steady state
  Tmax: 2 to 6 h
[2]; in vivo
  exposures in treatment-naïve HCV subjects compared to healthy subjects: around 2 fold
[2]; [3]
  accumulation index for AUC: 1.90 fold
  accumulation index for Cmax: 1.75 fold
[2]; repeated measure analyses
  time to steady state: ≤ 3 days
In vitro IC90 of VX-222
  in vitro IC90: 0.319 µg/mL
